pIC50: −log10 of the molar value.

A word on the pIC50: it is the IC50 on a negative log10 scale, so that one unit is a factor of ten.

The test system of the test is asexual P. falciparum 3D7 parasites. In words: P. falciparum 3D7 growth inhibition assay with LDH activity readout (Assay 1). It is filed as cell-based. The note with it: Plasmodium falciparum; 3D7 strain, 72 h incubation, LDH activity read by absorbance at 650 nm. Here is the method:
A modified version of the assay described in Gamo, F. J., Sanz, L. M., Vidal, J., de Cozar, C., Alvarez, E., Lavandera, J. L., Vanderwall, D. E., Green, D. V., Kumar, V., Hasan, S., Brown, J. R., Peishoff, C. E., Cardon, L. R., Garcia-Bustos, J. F., Nature, 465 (2010) 305-310 (Gamo et al.) was used to assess the activity of compounds against asexual P. falciparum 3D7 parasites. Compounds were pre-dispensed in 384-well plates, RPMI/AlbuMAX growth media was added and P. falciparum inoculated. Plates were incubated for 72 h and then frozen at −80° C. overnight. LDH activity was quantified with the modified cofactor 3-acetylpyridine adenine dinucleotide (APAD) (Sigma Aldrich) by measuring absorbance of the tetrazolium indicator nitro blue tetrazolium (NBT) (Sigma Aldrich) at 650 nm.
An inoculum of synchronous P. falciparum (3D7 strain) parasitized red blood cells (PRBC) at 0.7% parasitaemia and 2% haematocrit in RPMI-1640, 5% AlbuMAX, 2% D-sucrose, 0.3% glutamine and 150 μM hypoxanthine was used for the assay.
Compound master plates (384-well) were prepared by a 10 pt serial dilution of compounds, from 1 mM to 50.8 nM, in columns 3-12 and 13-22. DMSO was dispensed into columns 1 and 23 of the compound master plate to be used as the positive growth control (100% viability). […] Intermediate compound dilution plates were prepared by dispensing 1 μl from each well of the compound master plate into 11.5 μl of RPMI/AlbuMAX growth media. Duplicate assay plates (384-well) were then prepared by dispensing 0.5 μL of compound from the intermediate dilution plates into 9.5 μl of RPMI/AlbuMAX growth media. The parasite inoculum (30 μL) was dispensed into the assay plates containing compounds using a Multidrop dispenser (Thermo Scientific) such that the final assay volume was 40 μL and final compound concentration was 1 μM-0.05 nM (the volume of compound addition can be adjusted to the preferred and agreed screening concentration). The final DMSO concentration was 0.1% (ideally 0.2% to limit toxicity to parasites), but this is dependent on volume of compound DMSO stock solution that can be supplied. Plates were incubated at 37° C. for 72 h in an atmosphere of 5% CO2, 5% O2, […].
After 72 h of incubation, plates were frozen at −80° C. overnight and then thawed at room temperature for at least 4 h. To evaluate LDH activity, 45 μL of freshly made reaction mix (174 mM sodium L-lactate (Sigma Aldrich), 214 μM 3-acetyl pyridine adenine dinucleotide (APAD) (Sigma Aldrich), 270 μM nitro blue tetrazolium chloride (NBT) (Sigma Aldrich), 4.35 U/mL diaphorase (from Clostridium kluyveri) (Sigma Aldrich), 0.7% Tween 20, 100 mM Tris-HCl pH 7.5) was dispensed using a Multidrop dispenser (Thermo Scientific). Plates were shaken to ensure mixing and absorbance at 650 nm was monitored using a Perkin Elmer Envision plate reader after 30 min of incubation at room temperature. Data were normalized to percent growth inhibition using positive and negative controls, and analysed using TIBCO Spotfire software. […]
Consider `CC(C)CC[C@]1(c2ccccc2)NC(=N)N(Cc2ccc(C(C)(C)C)c(C(=O)N(C)Cc3noc(C4CC4)n3)c2)C1=O` [Compound 17], for which the pIC50 is 6.51.
Under `N=C1NC(C[C@@H]2CCCO2)(c2ccccc2)C(=O)N1Cc1ccc(C(F)(F)F)c(C(=O)N2Cc3nccnc3C2)c1` (stereo partly shown) [Compound 2] stands 8.24; under `CC(=O)N1CCN(C(=O)c2cc(F)cc(CN3C(=N)NC(c4ccccc4)(c4ccccc4)C3=O)c2)CC1` [Compound 1], 8.35.
With `Cc1ccc(CN2C(=N)NC(CC(C)C)(c3ccccc3)C2=O)cc1C(=O)NC1CC1` (stereo not shown) [Compound 16] the figure was 6.62; with `Cc1ccc(C2(c3ccc(C)cc3)NC(=N)N(Cc3ccc(C(C)(C)C)c(C(=O)N4Cc5nccnc5C4)c3)C2=O)cc1` [Compound 13], 6.65; with `CC(C)CC[C@]1(c2ccccc2)NC(=N)N(Cc2ccc(C(C)(C)C)c(C(=O)N3CCn4ccnc4C3)c2)C1=O` [Compound 5], 7.67.
On to `CC(C)CC[C@]1(c2ccccc2)NC(=N)N([C@@H]2CCc3ccc(C(=O)N4Cc5nccnc5C4)cc32)C1=O` [Compound 6], for which the pIC50 was 7.66.
On to `Cc1cc(CN2C(=N)NC(c3ccccc3)(c3ccccc3)C2=O)cc(C(=O)N2CCNC(=O)C2)c1` [Compound 20], for which the pIC50 is 6.45.
`CC(C)CC[C@]1(c2ccccc2)NC(=N)N(Cc2ccc(C(C)(C)C)c(C(=O)N(C)Cc3ccon3)c2)C1=O` [Compound 10] showed a pIC50 of 6.92.
With `CCOC(=O)NC1CCN(C(=O)c2cc(C)cc(CN3C(=N)NC(c4ccccc4)(c4ccccc4)C3=O)c2)CC1` [Compound 18] the figure was 6.50; with `Cc1ccc([C@@]2(CC3CC3)NC(=N)N(Cc3ccc(C(C)(C)C)c(C(=O)N4CCC(C)(C)C4)c3)C2=O)cc1` [Compound 9], 7.06.
In the case of `Cc1ccc(C2(CCC(C)C)NC(=N)N(Cc3ccc(C(C)(C)C)c(C(=O)N4Cc5cncnc5C4)c3)C2=O)cc1` (stereo not shown) [Compound 14], the pIC50 is 6.65.
Under `CC(C)(C)c1ccc(CN2C(=N)NC(c3ccccc3)(c3ccccc3)C2=O)cc1C(=O)N1Cc2nccnc2C1` [Compound 15] stands 6.62.
Under `Cc1ccc(C2(C3CCCCC3)NC(=N)N(Cc3ccc(C(C)(C)C)c(C(=O)N4Cc5ccccc5C4)c3)C2=O)cc1` (stereo not shown) [Compound 12] stands 6.66; under `CC(C)CC[C@]1(c2ccccc2)NC(=N)N(Cc2ccc(C(C)(C)C)c(C(=O)NCc3cccnc3)c2)C1=O` [Compound 11], 6.76.
Compound `CC(C)CC[C@]1(c2ccccc2)NC(=N)N(Cc2ccc(C(C)(C)C)c(C(=O)N3CCOC[C@@H]3C)c2)C1=O` [Compound 8] had a pIC50 of 7.25.
The compound `CC(C)CC[C@]1(c2ccccc2)NC(=N)N(Cc2ccc(C(F)(F)F)c(C(=O)N3CC(O)C(F)C3)c2)C1=O` (stereo partly shown) [Compound 3] had a pIC50 of 8.02. Compared with the last compound, the pIC50 is 0.77 log units higher.
With `CC(C)CC[C@]1(c2ccccc2)NC(=N)N(Cc2ccc(C(C)(C)C)c(C(=O)N(C)C(C)c3ccncc3)c2)C1=O` (stereo partly shown) [Compound 7] the figure was 7.60; with `N=C1NC(c2ccc(F)cc2)(C2CCCCC2)C(=O)N1Cc1ccc(C(F)(F)F)c(C(=O)N2Cc3nccnc3C2)c1` (stereo not shown) [Compound 4], 8.01.

Source of the values: US20190046507A1, “COMPOUNDS FOR THE TREATMENT OF MALARIA” (Merck Sharp & Dohme Corp., priority 2016, published 2019).
